Experimental data reported in patent US7435823B2, “Compounds and methods of use” (Amgen Inc., priority 2004, dated 2008).

System: Human Umbilical Vein Endothelial cells
Experiment: HUVEC proliferation assay, VEGF-stimulated
Format: cell-based
Settings: 72 h, read-out: inhibition of VEGF-stimulated HUVEC proliferation
Procedure: HUVEC Proliferation Assay
Human Umbilical Vein Endothelial cells are purchased from Clonetics, Inc., as cryopreserved cells harvested from a pool of donors. These cells, at passage 1, are thawed and expanded in EBM-2 complete medium, until passage 2 or 3. The cells are trypsinized, washed in DMEM+10% FBS+antibiotics, and spun at 1000 rpm for 10 min. Prior to centrifugation of the cells, a small amount is collected for a cell count. After centrifugation, the medium is discarded, and the cells are resuspended in the appropriate volume of DMEM+10% FBS+antibiotics to achieve a concentration of 3×10^5 cells/mL. Another cell count is performed to confirm the cell concentration. The cells are diluted to 3×10^4 cells/mL in DMEM+10% FBS+antibiotics, and 100 μL of cells are added to a 96-well plate. The cells are incubated at 37° C. for 22 h.
Prior to the completion of the incubation period, compound dilutions are prepared. Five-point, five-fold serial dilutions are prepared in DMSO, at concentrations 400-fold greater than the final concentrations desired. 2.5 μL of each compound dilution are diluted further in a total of 1 mL DMEM+10% FBS+antibiotics (400× dilution). Medium containing 0.25% DMSO is also prepared for the 0 μM compound sample. At the 22 h timepoint, the medium is removed from the cells, and 100 μL of each compound dilution is added. The cells are incubated at 37° C. for 2-3 h.
During the compound pre-incubation period, the growth factors are diluted to the appropriate concentrations. Solutions of DMEM+10% FBS+antibiotics, containing either VEGF or bFGF at the following concentrations: 50, 10, 2, 0.4, 0.08, and 0 ng/mL are prepared. For the compound-treated cells, solutions of VEGF at 550 ng/mL or bFGF at 220 ng/mL for 50 ng/mL or 20 ng/mL final concentrations, respectively, are prepared since 10 μL of each will be added to the cells (110 μL final volume). At the appropriate time after adding the compounds, the growth factors are added. VEGF is added to one set of plates, while bFGF is added to another set of plates. For the growth factor control curves, the media on wells B4-G6 of plates 1 and 2 are replaced with media containing VEGF or bFGF at the varying concentrations (50-0 ng/mL). The cells are incubated at 37° C. for an additional 72 h.
At the completion of the 72 h incubation period, the medium is removed, and the cells are washed twice with PBS. After the second wash with PBS, the plates are tapped gently to remove excess PBS, and the cells are placed at −70° C. for at least 30 min. The cells are thawed and analyzed using the CyQuant fluorescent dye (Molecular Probes C-7026), following the manufacturer's recommendations. The plates are read on a Victor/Wallac 1420 workstation at 485 nm/530 nm (excitation/emission). Raw data are collected and analyzed using a 4-parameter fit equation in XLFit. IC50 values are then determined.

Compound | IC50
COc1cc2nccc(Oc3ccc4c(C(=O)Nc5ccc(Cl)cc5)cccc4c3)c2cc1OC [Example 114, 6-(6,7-Dimethoxy-quinolin-4-yloxy)-naphthalene-1-carboxylic acid(4-chloro-phenyl)-amide] | < 500 nM

Same assay, conditions: VEGF-stimulated, 72 h, read-out: inhibition of VEGF-stimulated HUVEC proliferation

Compound | IC50
COc1cc2nccc(Oc3ccc4c(C(=O)Nc5cccc(C(F)(F)F)c5)cccc4c3)c2cc1OC [Example 116, 6-(6,7-dimethoxy-quinolin-4-yloxy)-naphthalene-1-carboxylix acid (3-trifluoromethyl-phenyl)-amide] | < 500 nM
COc1cc2nccc(Oc3ccc4c(NC(=O)c5ccccc5F)cccc4c3)c2cc1OC [Example 120, N-[6-(6,7-dimethoxy-quinolin-4-yloxy)-naphthalen-1-yl]-2-fluoro-benzamide] | < 500 nM
COc1cc2nccc(Oc3ccc4c(C(=O)Nc5ccc(C(F)(F)F)cc5)cccc4c3)c2cc1OC [Example 115, 6-(6,7-dimethoxy-quinolin-4-yloxy)-naphthalene-1-carboxylix acid (4-trifluoromethyl-phenyl)-amide] | < 500 nM
COc1cc2nccc(Oc3ccc4c(NC(=O)c5ccc(Cl)cc5)cccc4c3)c2cc1OC [Example 121, N-[6-(6,7-Dimethoxy-quinolin-4-yloxy)-naphthalen-1-yl]-4-chloro-benzamide] | < 500 nM
COc1cc2nccc(Oc3ccc4c(C(=O)Nc5ccc(Cl)c(C(F)(F)F)c5)cccc4c3)c2cc1OC [Example 117, 6-(6,7-dimethoxy-quinolin-4-yloxy)-naphthalene-1-carboxylix acid (4-chloro-3-trifluoromethyl-phenyl)-amide] | < 500 nM

System: Human peripheral blood lymphocytes
Experiment: Human mixed lymphocyte reaction (huMLR)
Format: cell-based
Settings: 3H-thymidine incorporation, 6 days, read-out: IC50, inhibition of T-cell activation
Procedure: Human Mixed Lymphocyte Reaction (huMLR):
The purpose of this assay is to test the potency of T cell activation inhibitors in an in vitro model of allogeneic T cell stimulation. Human peripheral blood lymphocytes (hPBL; 2×10^5/well) are incubated with mitomycin C-treated B lymphoblastoid cells (JY cell line; 1×10^5/well) as allogeneic stimulators in the presence or absence of dilutions of potential inhibitor compound in 96-well round-bottom tissue culture plates. These cultures are incubated at 37° C. in 5% CO2 for 6 days total. The proliferative response of the hPBL is measured by ^3H-thymidine incorporation overnight between days 5 and 6 after initiation of culture. Cells are harvested onto glass fiber filters and ^3H-thymidine incorporation into DNA is analyzed by liquid scintillation counter.

Compound | IC50
COc1cc2c(Oc3ccc4c(C(=O)Nc5cc(C(C)(C)C)on5)cccc4c3)ncnc2cc1OCCCN1CCCCC1 [Example 732, N-(5-(1,1-dimethylethyl)-3-isoxazolyl)-6-((6-(methoxy)-7-((3-(1-piperidinyl)propyl)oxy)-4-quinazolinyl)oxy)-1-naphthalenecarboxamide] | < 100 nM
COc1cc2c(Oc3ccc4c(C(=O)Nc5ccc(Cl)cc5)cccc4c3F)ccnc2cc1OCCCN1CCOCC1 [Example 816] | < 100 nM
COc1cc2c(Oc3ccc4c(C(=O)Nc5cc(C(C)(C)C)on5)cccc4c3F)ccnc2cc1OCCCN1CCOCC1 [Example 611, N-(5-(1,1-dimethylethyl)-3-isoxazolyl)-5-fluoro-6-((6-(methoxy)-7-((3-(4-morpholinyl)propyl)oxy)-4-quinolinyl)oxy)-1-naphthalenecarboxamide] | < 100 nM

Next, values leading:

IC50 | Compound
< 100 nM | COc1cc2nccc(Oc3ccc4c(C(=O)Nc5cc(C(C)(C)C)on5)ccc(C)c4c3)c2cc1OC [Example 541, 6-((6,7-bis(methoxy)-4-quinolinyl)oxy)-N-(5-(1,1-dimethylethyl)-3-isoxazolyl)-4-methyl-1-naphthalenecarboxamide]
< 100 nM | COc1cc2nccc(Oc3ccc4c(C(=O)Nc5ncc(C)s5)cccc4c3)c2cc1OC [Example 289, 6-((6,7-bis(methoxy)-4-quinolinyl)oxy)-N-(5-methyl-1,3-thiazol-2-yl)-1-naphthalenecarboxamide]
< 100 nM | COc1cc2nccc(Oc3ccc4c(C(=O)Nc5cc(C(F)(F)F)ccn5)cccc4c3)c2cc1OC [Example 657, 6-((6,7-bis(methoxy)-4-quinolinyl)oxy)-N-(4-(trifluoromethyl)-2-pyridinyl)-1-naphthalenecarboxamide]
< 100 nM | COc1cc2nccc(Oc3ccc4c(C(=O)Nc5cc(C(C)(C)C)[nH]n5)cccc4c3)c2cc1OC [Example 589, 6-((6,7-bis(methoxy)-4-quinolinyl)oxy)-N-(5-(1,1-dimethylethyl)-1H-pyrazol-3-yl)-1-naphthalenecarboxamide]
< 100 nM | COc1ccc(C(C)(C)C)cc1NC(=O)c1cccc2cc(Oc3ccnc4cc(OCCCN5CCOCC5)c(OC)cc34)ccc12 [Example 342, N-(5-(1,1-dimethylethyl)-2-(methoxy)phenyl)-6-((6-(methoxy)-7-((3-(4-morpholinyl)propyl)oxy)-4-quinolinyl)oxy)-1-naphthalenecarboxamide]
< 100 nM | COc1cc2nccc(Oc3ccc4c(C(=O)Nc5cc(C(C)(C)C)on5)cccc4c3)c2cc1OC [Example 583, 6-((6,7-bis(methoxy)-4-quinolinyl)oxy)-N-(5-(1,1-dimethylethyl)-3-isoxazolyl)-1-naphthalenecarboxamide]
< 100 nM | COc1cc2nccc(Oc3ccc4c(C(=O)Nc5cc(C(C)(C)C)on5)cccc4c3F)c2cc1OC [Example 467, 6-((6,7-bis(methoxy)-4-quinolinyl)oxy)-N-(5-(1,1-dimethylethyl)-3-isoxazolyl)-5-fluoro-1-naphthalenecarboxamide]
< 100 nM | COc1cc2c(Oc3ccc4c(C(=O)Nc5cc(C(C)(C)C)[nH]n5)cccc4c3)ccnc2cc1OCCCN1CCOCC1 [Example 325, N-(5-(1,1-dimethylethyl)-1H-pyrazol-3-yl)-6-((6-(methoxy)-7-((3-(4-morpholinyl)propyl)oxy)-4-quinolinyl)oxy)-1-naphthalenecarboxamide]
< 100 nM | COc1cc2c(Oc3ccc4c(C(=O)Nc5cccc(C(F)(F)F)c5)cccc4c3)ccnc2cc1OCCCN1CCOCC1 [Example 314, 6-((6-(methoxy)-7-((3-(4-morpholinyl)propyl)oxy)-4-quinolinyl)oxy)-N-(3-(trifluoromethyl)phenyl)-1-naphthalenecarboxamide]

System: not given
Experiment: not given
Settings: not given

Compound | melting point
CCNC(=O)Nc1ccc2c(F)c(Oc3ccnc4cc(OCCCN5CCOCC5)c(OC)cc34)ccc2c1 [Example 111] | 193.5 to 196.4 °C
